Where “and” joins values, the source holds several entries; their conditions need not be identical. Identical values can stand only once. Entries after “also recorded” stand apart in the source; their conditions may differ. Numbered stars: 1 amine (or outer) side, 2 acyl side, 3 side chain; on linkers, the order of the positions; unused ones are H or OH. Bridge positions count the residues as written; N and C are the ends. Square brackets hold non-standard residues; d marks the D form. Peptide text beside a SMILES is read from it. Acbc(cis-1,3) = O=C([C@H]1C[C@@H](N[*:1])C1)[*:2]

The conditions of series [1]: read-out: EC50 (antiviral activity in cells); cited from earlier work.
Series [2] concerns the target T1, SARS-CoV-2 M^pro (Severe acute respiratory syndrome coronavirus 2, UniProt P0DTD1). Put plainly: biochemical. In kind it is biochemical.
The target in series [3] is T1, SARS-CoV-2 M^pro. Put plainly: biochemical. In kind it is binding. Conditions: for kon: read-out: ka (kinetic association).
Series [4] in a line: Cytotoxicity of GM4 and related macrocycles. The settings on record: at concentrations as high as 100 µM. In kind it is cell-based.
Series [5] can be described thus: Serum stability assay in human serum (LC/MS).
Series [6] can be described thus: Antiviral activity in cells of GM4 and related macrocycles. In kind it is cell-based.
The target in another series is M^pro (Severe acute respiratory syndrome coronavirus 2, UniProt P0DTD1). In kind it is biochemical, SARS-CoV-2.
For another series, the system named is Vero E6 cells. Also noted: method as in PMID 33786375. Conditions: read-out: CC50 (half-maximal cytotoxic concentration); cited from earlier work.
Series [7] in a line: human serum (Cosmo Bio, 12181201). The settings on record: 37 °C, up to 100 h.
Series [8] has as its system recombinant SARS-CoV-2 M^pro. Put plainly: M^pro 6 mg ml^–1 in 20 mM HEPES (pH 7.5) and 50 mM NaCl, co-crystallization with GM4. Conditions: SARS-CoV-2, room temperature, crystals grown at 20 °C, up to one week.
Where [9] appears, read: 37 °C, incubation time 1 h, relative to 0 h = 100%, technical replicates, 60 min.
The mark [10] stands for this setting: 37 °C, incubation time 4 h, relative to 0 h = 100%, technical replicates, 240 min.
The mark [11] stands for this setting: 37 °C, incubation time 8 h, relative to 0 h = 100%, technical replicates, 480 min.
Setting [12] is: 37 °C, incubation time 24 h, relative to 0 h = 100%, technical replicates, 1440 min.
[13] abbreviates: 37 °C, incubation time 50 h, relative to 0 h = 100%, technical replicates, 3000 min.
[14] abbreviates: 37 °C, incubation time 100 h, relative to 0 h = 100%, technical replicates, 6000 min.
The mark [15] stands for this setting: human, Remaining peptide (%), 37 °C, incubation time 1 h, relative to 0 h = 100%, technical replicates.
Setting [16] is: human, Remaining peptide (%), 37 °C, incubation time 4 h, relative to 0 h = 100%, technical replicates.
The mark [17] stands for this setting: human, Remaining peptide (%), 37 °C, incubation time 8 h, relative to 0 h = 100%, technical replicates.
Setting [18] is: human, Remaining peptide (%), 37 °C, incubation time 24 h, relative to 0 h = 100%, technical replicates.
[19] abbreviates: human, Remaining peptide (%), 37 °C, incubation time 50 h, relative to 0 h = 100%, technical replicates.

Take `Cn1cnc(Cn2c(=O)[nH]/c(=N\c3cc4cn(C)nc4cc3Cl)n(Cc3cc(F)c(F)cc3F)c2=O)n1` [S-217622]: the EC50 in [1] is 370 nM.
Regarding `CC(C)C[C@@H]1NC(=O)[C@H](CC(N)=O)NC(=O)[C@H](CC(C)C)NC(=O)[C@H]2C[C@H](C2)NC(=O)[C@H](Cc2c[nH]cn2)NC(=O)[C@H](Cc2ccccc2)NC(=O)[C@@H](Cc2ccc(O)cc2)NC(=O)CSC[C@H](C(N)=O)NC(=O)CNC(=O)[C@@H]2CCCN2C(=O)[C@H](CCCNC(=N)N)NC(=O)[C@H](Cc2ccc(O)cc2)NC(=O)CNC1=O` [GM4] ({CH2CO}-[dY]FH[Acbc(cis-1,3)]LNLGYRPG[dC]-NH2; thioether N-13), the IC50 against SARS-CoV-2 M^pro [2] stood at 50 nM. Also, at SARS-CoV-2 M^pro [2], the inhibition at 0.102 µM was 84.7%. At SARS-CoV-2 M^pro [2], this compound gave an inhibition at 0.309 µM of 97.9%. In addition, at 0.933 µM the inhibition against SARS-CoV-2 M^pro [2] was 100%. Moreover, at 2.75 µM the inhibition against SARS-CoV-2 M^pro [2] was 100%. On SARS-CoV-2 M^pro [2], this compound showed an inhibition at 8.32 µM of 100%. Also, the kon at SARS-CoV-2 M^pro [3] turned out to be 100000 M⁻¹ s⁻¹. The cytotoxicity entry in series [4] is reported as “no cytotoxicity”. The “Remaining peptide (%)” value was 104.39% and 106.19% in series [5] (setting [9]); 95.61% and 97.60% in series [5] (setting [10]); 99.57% and 100.45% in [5] (setting [11]); 95.67% and 101.18% in series [5] (setting [12]); 76.05% and 78.63% in series [5] (setting [13]); 55.56% and 56.89% in series [5] (setting [14]). Besides, in series [5] (GM4 vs GM4γ^14A), the “fold increase in serum (proteolytic) stability compared to alanine-substituted variant” value turned out to be 12 fold. The compound also had a half-life at 10 μM in [5] (human) of 126 h. In addition, the amount remaining at 1 h, 10 μM in series [5] (setting [15]) turned out to be 104%. Besides, the share remaining at 4 h, 10 μM in series [5] (setting [16]) came to 95.7%. Also, the share remaining at 8 h, 10 μM in [5] (setting [17]) amounted to 97.7%. The amount remaining at 24 h, 10 μM in [5] (setting [18]) worked out at 82.2%. For the same compound, in series [5] (setting [19]), the fraction remaining at 50 h, 10 μM is 67.9%. In [5] (human, Remaining peptide (%), 37 °C, incubation time 100 h, relative to 0 h = 100%, technical replicates), the fraction remaining at 100 h, 10 μM was 55.7%. In addition, the “antiviral activity in cells” value in [6] is “do not manifest obvious antiviral activity”. For the same compound, the “hydrolysis of the peptide by M^pro” value on M^pro is “lack of efficient GM4 hydrolysis”.
Consider `O=c1[nH]cc(-c2cc(-c3cc(Cl)c(F)c(OCc4ccccc4Cl)c3)c(=O)n(-c3cccnc3)c2)c(=O)[nH]1` [compound 23], for which, in the series with Vero E6 cells, the CC50 is 1150 nM.
On to “^AcyFHA LNLGYRPGc-NH2 ({CH2CO}-[dY]FHALNLGYRPG[dC]-NH2; thioether N-13)”, for which the cleaved bond entry in series [7] was “F2-H3, 24 h; also recorded: L5-N6, 24 h; also recorded: P11-G12, 24 h; also recorded: G12-c13, 24 h”.
Regarding “^AcyFHγ^1LNLGYRPGc-NH2 ({CH2CO}-[dY]FH[Acbc(cis-1,3)]LNLGYRPG[dC]-NH2; thioether N-13)”, the not cleaved result in series [8] is recorded as “complete intact peptide in the active site pocket”. Moreover, the cleaved bond result in [7] was “L5-N6, 24 h; also recorded: N6-L7, 24 h; also recorded: R10-P11, 24 h; also recorded: P11-G12, 24 h; also recorded: G12-c13, 24 h”.
In the case of `CC(C)C[C@@H]1NC(=O)[C@H](C)NC(=O)[C@H](Cc2c[nH]cn2)NC(=O)[C@H](Cc2ccccc2)NC(=O)[C@@H](Cc2ccc(O)cc2)NC(=O)CSC[C@H](C(N)=O)NC(=O)CNC(=O)[C@@H]2CCCN2C(=O)[C@H](CCCNC(=N)N)NC(=O)[C@H](Cc2ccc(O)cc2)NC(=O)CNC(=O)[C@H](CC(C)C)NC(=O)[C@H](CC(N)=O)NC1=O` [GM4γ^14A] ({CH2CO}-[dY]FHALNLGYRPG[dC]-NH2; thioether N-13), at SARS-CoV-2 M^pro [2], the IC50 came out at 10 nM, the inhibition at 0.209 µM is 100%, 1.86 µM produced 100% inhibition and the inhibition at 5.62 µM stood at 100%. At SARS-CoV-2 M^pro [2], the inhibition at 16.6 µM came to 100%, the inhibition at 50.1 µM was determined as 100% and the inhibition at […] was found to be 100%. For the same compound, at SARS-CoV-2 M^pro [3], the Kd was found to be 2.4 nM, the “kd (kinetic dissociation)” value was 2.6 10^-3 s^-1 and the kon came out at 1.1e+06 M⁻¹ s⁻¹. In [5] (setting [9]), the “Remaining peptide (%)” value is 80.98% and 76.08%. The “Remaining peptide (%)” value in series [5] (37 °C, incubation time 2 h, relative to 0 h = 100%, technical replicates, 120 min) is 68.35% and 66.59%. The “Remaining peptide (%)” value in series [5] (setting [10]) was 75.33% and 71.01%. For the same compound, the “Remaining peptide (%)” value in series [5] (setting [11]) was 60.41% and 56.42%. The “Remaining peptide (%)” value in series [5] (setting [12]) was 37.15% and 33.37%. For the same compound, in series [5] (setting [13]), the “Remaining peptide (%)” value is 12.36% and 12.37%. In addition, the “Remaining peptide (%)” value in [5] (setting [14]) was 2.74% and 5.40% and 2.53%. In [5] (human), this compound had a half-life at 10 μM of 11 h. The fraction remaining at 1 h, 10 μM in [5] (setting [15]) worked out at 74.2%. Moreover, in series [5] (human, Remaining peptide (%), 37 °C, incubation time 2 h, relative to 0 h = 100%, technical replicates), the fraction remaining at 2 h, 10 μM was 67.6%. Moreover, the amount remaining at 4 h, 10 μM in [5] (setting [16]) came out at 66.7%. The amount remaining at 8 h, 10 μM in series [5] (setting [17]) came to 53.6%. Besides, the amount remaining at 24 h, 10 μM in [5] (setting [18]) worked out at 32.3%. Further, the amount remaining at 50 h, 10 μM in series [5] (setting [19]) stood at 12.3%.
